Calls of active or inactive are those of the source. The rule behind the calls is not given here.
Tested on: rodent carcinogenicity bioassays, tumor incidence
Assay: CCRIS carcinogenicity studies
Summary of the method: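 Archive of carcinogenicity, mutagenicity, tumor promotion and tumor inhibition results drawn from journals, NCI reports and other sources, expert-reviewed; covers 1985-2011 and is no longer updated.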

For `C`, the carcinogen call (Species: MOUSE, Strain/Sex: NMRI/FEMALE, Route: INHALATION, Dose: 0, 7.4 MG/M3 18 HR/D 5 D/WK FOR 4 MO INCREASED TO 12.2 MG/M3 FOR 9.5 MO FOLLOWED BY CLEAN AIR FOR 9.5 MO (STUDY DURATION) was “inactive; negative”, the carcinogen call (Species: RAT, Strain/Sex: F344/FEMALE, Route: INHALATION, Dose: 0, 2.5, 6.5 MG/M3 IN AIR 16 HR/D 5 D/WK FOR 24 MO (STUDY DURATION: 25.5 MO), Dose: 0, 2.5, 6.5 MG/M3 IN AIR 16 HR/D 5 D/WK FOR 24 MO (STUDY DURATION: 25.5 MO), Tumor Site: Type of Lesion: LUNG: BENIGN OR MALIGNANT NEOPLASM) was “active; positive” and the carcinogen call (Species: RAT, Strain/Sex: F344/FEMALE, Route: INHALATION, Dose: 0, 2.5, 6.5 MG/M3 OF AIR 16 HR/D 5 D/WK FOR UP TO 24 MO (STUDY DURATION: LIFE SPAN), Dose: 0, 2.5, 6.5 MG/M3 OF AIR 16 HR/D 5 D/WK FOR UP TO 24 MO (STUDY DURATION: LIFE SPAN), Tumor Site: Type of Lesion: LUNG: MALIGNANT TUMOR) was “active; positive”. The carcinogen call (Species: RAT, Strain/Sex: F344/MALE, Route: INHALATION, Dose: 0, 2.5, 6.5 MG/M3 IN AIR 16 HR/D 5 D/WK FOR 24 MO (STUDY DURATION: 25.5 MO), Dose: 0, 2.5, 6.5 MG/M3 IN AIR 16 HR/D 5 D/WK FOR 24 MO (STUDY DURATION: 25.5 MO)) was “inactive; negative”, the carcinogen call (Species: RAT, Strain/Sex: F344/MALE, Route: INHALATION, Dose: 0, 2.5, 6.5 MG/M3 OF AIR 16 HR/D 5 D/WK FOR UP TO 24 MO (STUDY DURATION: LIFE SPAN), Dose: 0, 2.5, 6.5 MG/M3 OF AIR 16 HR/D 5 D/WK FOR UP TO 24 MO (STUDY DURATION: LIFE SPAN), Tumor Site: Type of Lesion: LUNG: MALIGNANT TUMOR) was “active; positive” and the carcinogen call (Species: RAT, Strain/Sex: WISTAR/FEMALE, Route: INHALATION, Dose: 0, 7.4 MG/M3 18 HR/D 5 D/WK FOR 4 MO INCREASED TO 12.2 MG/M3 FOR 20 MO FOLLOWED BY CLEAN AIR FOR 6 MO (STUDY DURATION: 3, Tumor Site: Type of Lesion: LUNG: TUMOR) was “active; positive”.
In the case of `Clc1ccc2c(c1)Oc1ccc(Cl)cc1O2`, the carcinogen call (Species: MOUSE, Strain/Sex: B6C3F1/FEMALE, Route: ORAL, Dose: 0, 5,000, 10,000 PPM IN DIET FOR 90 WK (STUDY DURATION: 91-98 WK), Dose: 0, 5,000, 10,000 PPM IN DIET FOR 90 WK (STUDY DURATION: 91-98 WK)) was “inactive; negative”, the carcinogen call (Species: MOUSE, Strain/Sex: B6C3F1/MALE, Route: ORAL, Dose: 0, 5000, 10000 PPM IN DIET FOR 90 WK (STUDY DURATION: 92-101 WK), Dose: 0, 5000, 10000 PPM IN DIET FOR 90 WK (STUDY DURATION: 92-101 WK), Tumor Site: Type of Lesion: LIVER: HEPTOCELLULAR ADENOMA OR CARCINOMA, HEMATOPOIETIC SYSTEM: LYMPHOMA OR LEUKEMIA, SPLEEN: HEMANGIOMA OR HEMANGIOSAR, Tumor Site: Type of Lesion: LIVER: HEPTOCELLULAR ADENOMA OR CARCINOMA, HEMATOPOIETIC SYSTEM: LYMPHOMA OR LEUKEMIA, SPLEEN: HEMANGIOMA OR HEMANGIOSAR) was “equivocal” and the carcinogen call (Species: RAT, Strain/Sex: OSBORNE-MENDEL/FEMALE, Route: ORAL, Dose: 0, 5,000, 10,000 PPM IN DIET FOR 110 WK (STUDY DURATION: 110-117 WK), Dose: 0, 5,000, 10,000 PPM IN DIET FOR 110 WK (STUDY DURATION: 110-117 WK)) was “inactive; negative”. For the same compound, the carcinogen call (Species: RAT, Strain/Sex: OSBORNE-MENDEL/MALE, Route: ORAL, Dose: 0, 5,000, 10,000 PPM IN DIET FOR 110 WK (STUDY DURATION: 110-112 WK), Dose: 0, 5,000, 10,000 PPM IN DIET FOR 110 WK (STUDY DURATION: 110-112 WK)) was “inactive; negative”.
In the case of `NC(N)=Nc1nc(CSCCN=CNS(=O)(=O)c2ccc(Br)cc2)cs1`, the carcinogen call (Species: MOUSE, Strain/Sex: CD-1/FEMALE, Route: ORAL, Dose: 0, 50, 200, 500 MG/KG FOR 18 MO (STUDY DURATION: 18 MO), Dose: 0, 50, 200, 500 MG/KG FOR 18 MO (STUDY DURATION: 18 MO)) was “inactive; negative”, the carcinogen call (Species: MOUSE, Strain/Sex: CD-1/MALE, Route: ORAL, Dose: 0, 50, 200, 500 MG/KG FOR 18 MO (STUDY DURATION: 18 MO), Dose: 0, 50, 200, 500 MG/KG FOR 18 MO (STUDY DURATION: 18 MO)) was “inactive; negative” and the carcinogen call (Species: RAT, Strain/Sex: SPRAGUE-DAWLEY/FEMALE, Route: ORAL, Dose: 0, 50, 200, 500 MG/KG FOR 13 MO THEN 0, 50, 150, 300, 500 MG/KG FOR DURATION OF STUDY (STUDY DURATION: 24 MO), Dose: 0, 50, 200, 500 MG/KG FOR 13 MO THEN 0, 50, 150, 300, 500 MG/KG FOR DURATION OF STUDY (STUDY DURATION: 24 MO)) was “inactive; negative”. The carcinogen call (Species: RAT, Strain/Sex: SPRAGUE-DAWLEY/FEMALE, Route: ORAL, Dose: INITIALLY: 0, 50, 200, 500 MG/KG BW, THEN 0, 50, 150, 300, 500 (200 MG/KG DOSE LOWERED TO 150 MG/KG AFTER 13 MONTHS AND, Dose: INITIALLY: 0, 50, 200, 500 MG/KG BW, THEN 0, 50, 150, 300, 500 (200 MG/KG DOSE LOWERED TO 150 MG/KG AFTER 13 MONTHS AND) was “inactive; negative”, the carcinogen call (Species: RAT, Strain/Sex: SPRAGUE-DAWLEY/MALE, Route: ORAL, Dose: 0, 50, 200, 500 MG/KG FOR 13 MO THEN 0, 50, 150, 300, 500 MG/KG FOR DURATION OF STUDY (STUDY DURATION: 24 MO), Dose: 0, 50, 200, 500 MG/KG FOR 13 MO THEN 0, 50, 150, 300, 500 MG/KG FOR DURATION OF STUDY (STUDY DURATION: 24 MO)) was “inactive; negative” and the carcinogen call (Species: RAT, Strain/Sex: SPRAGUE-DAWLEY/MALE, Route: ORAL, Dose: INITIALLY: 0, 50, 200, 500 MG/KG BW, THEN 0, 50, 150, 300, 500 (200 MG/KG DOSE LOWERED TO 150 MG/KG AFTER 13 MONTHS AND, Dose: INITIALLY: 0, 50, 200, 500 MG/KG BW, THEN 0, 50, 150, 300, 500 (200 MG/KG DOSE LOWERED TO 150 MG/KG AFTER 13 MONTHS AND) was “inactive; negative”.
For `C[C@]12CC[C@@H]3c4ccc(O)cc4CC[C@H]3[C@@H]1CC[C@@H]2O`, the carcinogen call (Species: GUINEA PIG, Route: SUBCUTANEOUS IMPLANT, Tumor Site: Type of Lesion: UTERUS) was “active; positive”, the carcinogen call (Species: HAMSTER, Route: SUBCUTANEOUS IMPLANT, Tumor Site: Type of Lesion: KIDNEY) was “active; positive” and the carcinogen call (Species: HAMSTER, Strain/Sex: SYRIAN/MALE, Route: SUBCUTANEOUS IMPLANT, Dose: 0, 20 MG IN PELLETS IMPLANTED EVERY 2.5 MO FOR 9 MO (STUDY DURATION: 9 MO), Tumor Site: Type of Lesion: KIDNEY: TUMOR) was “active; positive”. The carcinogen call (Species: MOUSE, Route: ORAL, SUBCUTANEOUS IMPLANT, Tumor Site: Type of Lesion: CERVIX, THYMUS GLAND, MAMMARY GLAND, UTERUS, VAGINA, Tumor Site: Type of Lesion: CERVIX, THYMUS GLAND, MAMMARY GLAND, UTERUS, VAGINA) was “active; positive”, the carcinogen call (Species: MOUSE, Route: SUBCUTANEOUS, Tumor Site: Type of Lesion: LYMPHATIC SYSTEM) was “active; positive” and the carcinogen call (Species: MOUSE, Strain/Sex: BALB/CCRGL/FEMALE, Route: SUBCUTANEOUS, Dose: 5 UG DAILY FOR 5 D BEGINNING 16 HR AFTER BIRTH (STUDY DURATION: 20 MO), Tumor Site: Type of Lesion: CERVICOVAGINAL TRACT: CARCINOMA (16/37)) was “active; positive”. For the same compound, the carcinogen call (Species: RAT, Route: SUBCUTANEOUS IMPLANT, Tumor Site: Type of Lesion: MAMMARY GLAND, PITUITARY GLAND) was “active; positive”.
For `O=C([O-])c1cc(N=Nc2ccc(-c3ccc(N/N=c4/c(=O)cc/c(=N\Nc5cc(S(=O)(=O)[O-])ccc5[O-])c4=O)cc3)cc2)ccc1[O-].[Cu+2].[Na+].[Na+]`, the carcinogen call (Species: RAT, Strain/Sex: F344/FEMALE, Route: ORAL, Dose: 0, 190, 375, 750, 1500, 3000 PPM IN DIET FOR 91 D (STUDY DURATION: 93 D), Dose: 0, 190, 375, 750, 1500, 3000 PPM IN DIET FOR 91 D (STUDY DURATION: 93 D), Tumor Site: Type of Lesion: LIVER: HEPATOCELLULAR CARCINOMA OR NEOPLASTIC NODULE, FOCI OF CELLULAR ALTERATION OR BASOPHILIC FOCI) was “active; positive” and the carcinogen call (Species: RAT, Strain/Sex: F344/MALE, Route: ORAL, Dose: 0, 190, 375, 750, 1500, 3000 PPM IN DIET FOR 91 D (STUDY DURATION: 93 D), Dose: 0, 190, 375, 750, 1500, 3000 PPM IN DIET FOR 91 D (STUDY DURATION: 93 D), Tumor Site: Type of Lesion: LIVER: FOCI OF CELLULAR ALTERATION OR BASOPHILIC FOCI) was “active; positive”.
For `Clc1cccc(-c2cc(Cl)cc(Cl)c2)c1`, the carcinogen call (Species: RAT, Strain/Sex: SPRAGUE-DAWLEY/FEMALE, Route: ORAL, Dose: 0, 50, 100, 200 PPM IN DIET FOR THE DURATION OF STUDY (STUDY DURATION: 24 MO), Dose: 0, 50, 100, 200 PPM IN DIET FOR THE DURATION OF STUDY (STUDY DURATION: 24 MO), Tumor Site: Type of Lesion: LIVER: TUMOR) was “active; positive” and the carcinogen call (Species: RAT, Strain/Sex: SPRAGUE-DAWLEY/MALE, Route: ORAL, Dose: 0, 50, 100, 200 PPM IN DIET FOR THE DURATION OF STUDY (STUDY DURATION: 24 MO), Dose: 0, 50, 100, 200 PPM IN DIET FOR THE DURATION OF STUDY (STUDY DURATION: 24 MO)) was “inactive; negative”.

— PubChem BioAssay AID1259411 (Chemical Carcinogenesis Research Information System (CCRIS), 2018)
